{
  "source": "patent US6610689B2",
  "about": "“HIV protease inhibitors based on amino acid derivatives” (priority 2001, dated 2003)",
  "note": "Counter-ions that a name gives are not always drawn.",
  "data": [
    {"target": "T1, HIV protease (Human immunodeficiency virus type 1 group M subtype B, UniProt P04585)", "T1 construct": "A third viral enzyme known as protease then cleaves the polyproteins", "test": "Enzymatic Assay for Determining the Inhibition Constant (Ki) of Synthetic Compounds Targeting the HIV Protease (fluorometric FRET assay)", "type": "biochemical", "conditions": "not given", "procedure,_shortened": "(§1)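 Ki obtained via the Henderson equation from enzyme velocities with and without compound, accounting for substrate concentration and Km. Activity followed by FRET fluorescence from cleavage of a substrate flanked by EDANS donor and DABCYL acceptor.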", "units": {"Ki": "nM"}, "values": [
      {"smiles": "Cc1ccc(S(=O)(=O)N(CC(C)C)[C@@H](CCCCNC(=O)[C@H](Cc2c[nH]c3ccccc23)NC(=O)CCc2ccccc2)C(=O)O)cc1", "note": "[Example 133, Nα-Isobutyl-Nα-(4-methylbenzenesulfonyl)-Nε-(N′α-dihydrocinnamoyl-L-tryptophanyl)-L-lysine]", "Ki": 0.606},
      {"smiles": "Cc1ccc(S(=O)(=O)N(CC(C)C)[C@H](CO)CCCCNC(=O)[C@H](Cc2ccccn2)NC(=O)OC(C)(C)C)cc1", "note": "[Example 134, (2S,2′S) 2-N-Isobutyl-2-N-(4-methylbenzenesulfonyl)-6-N-(N′α-tert-butoxycarbonyl-S-2-pyridylalanyl)-2,6-diaminohexanol]", "Ki": 30},
      {"smiles": "Cc1ccc(S(=O)(=O)N(CC(C)C)[C@H](CO)CCCCNC(=O)[C@H](Cc2cccnc2)NC(=O)OC(C)(C)C)cc1", "note": "[Example 135, (2S,2′S) 2-N-Isobutyl-2-N-(4-methylbenzenesulfonyl)-6-N-(N′α-tert-butoxycarbonyl-S-3-pyridylalanyl)-2,6-diaminohexanol]", "Ki": 144},
      {"smiles": "Cc1ccc(S(=O)(=O)N(CC(C)C)[C@H](CO)CCCCNC(=O)[C@H](Cc2ccccc2F)NC(=O)OC(C)(C)C)cc1", "note": "[Example 138, (2S,2′S) 2-N-Isobutyl-2-N-(4-methylbenzenesulfonyl)-6-N-(N′α-tert-butoxycarbonyl-S-2-fluorophenylalanyl)-2,6-diaminohexanol]", "Ki": 10},
      {"smiles": "Cc1ccc(S(=O)(=O)N(CC(C)C)[C@H](CO)CCCCNC(=O)[C@H](Cc2cccc(F)c2)NC(=O)OC(C)(C)C)cc1", "note": "[Example 139, (2S,2′S) 2-N-Isobutyl-2-N-(4-methylbenzenesulfonyl)-6-N-(N′α-tert-butoxycarbonyl-S-3-fluorophenylalanyl)-2,6-diaminohexanol]", "Ki": 4.1},
      {"smiles": "Cc1ccc(S(=O)(=O)N(CC(C)C)[C@H](CO)CCCCNC(=O)[C@H](Cc2ccc(F)cc2)NC(=O)OC(C)(C)C)cc1", "note": "[Example 140, (2S,2′S) 2-N-Isobutyl-2-N-(4-methylbenzenesulfonyl)-6-N-(N′α-tert-butoxycarbonyl-S-4-fluorophenylalanyl)-2,6-diaminohexanol]", "Ki": 4.2},
      {"smiles": "Cc1ccc(S(=O)(=O)N(CC(C)C)[C@H](CO)CCCCNC(=O)[C@@H]2Cc3c([nH]c4ccccc34)CN2C(=O)OC(C)(C)C)cc1", "note": "[Example 141, (2S,2′S) 2-N-Isobutyl-2-N-(4-methylbenzenesulfonyl)-6-N-(N′α-tert-butoxycarbonyl-S-1,2,3,4-tetrahydronorharman-3-carbonyl)-2,6-diaminohexanol]", "Ki": 38},
      {"smiles": "Cc1ccc(S(=O)(=O)N(CC(C)C)[C@H](CO)CCCCNC(=O)[C@H](Cc2ccc(C(C)(C)C)cc2)NC(=O)OC(C)(C)C)cc1", "note": "[Example 142, (2S,2′S) 2-N-Isobutyl-2-N-(4-methylbenzenesulfonyl)-6-N-(N′α-tert-butoxycarbonyl-S-4-tert-butylphenylalanyl)-2,6-diaminohexanol]", "Ki": 93},
      {"smiles": "Cc1ccc(S(=O)(=O)N(CC(C)C)[C@H](CO)CCCCNC(=O)[C@H](Cc2c(F)c(F)c(F)c(F)c2F)NC(=O)OC(C)(C)C)cc1", "note": "[Example 143, (2S,2′S) 2-N-Isobutyl-2-N-(4-methylbenzenesulfonyl)-6-N-(N′α-tert-butoxycarbonyl-S-pentafluorophenylalanyl)-2,6-diaminohexanol]", "Ki": "> 300"},
      {"smiles": "Cc1ccc(S(=O)(=O)N[C@@H](Cc2c[nH]c3ccccc23)C(=O)NCCCC[C@@H](CO)N(CC(C)C)S(=O)(=O)c2ccc(N)cc2)cc1", "note": "[Example 145, (2S,2′S) 2-N-(4-Aminobenzenesulfonyl)-2-N-isobutyl-6-N-[N′α-(4-methylbenzenesulfonyl)-S-tryptophanyl]-2,6-diaminohexanol]", "Ki": 1.9},
      {"smiles": "COc1ccc(S(=O)(=O)N(CC(C)C)[C@H](CO)CCCCNC(=O)[C@H](Cc2c[nH]c3ccccc23)NC(=O)OC(C)(C)C)cc1", "note": "[Example 147, (2S,2′S) 2-N-Isobutyl-2-N-(4-methoxybenzenesulfonyl)-6-N-(N′α-tert-butoxycarbonyl-S-tryptophanyl)-2,6-diaminohexanol]", "Ki": 16},
      {"smiles": "COc1ccc(S(=O)(=O)N(CC(C)C)[C@H](CO)CCCCNC(=O)[C@H](Cc2c[nH]c3ccccc23)NC(=O)C(C)(C)C)cc1", "note": "[Example 148, (2S,2′S) 2-N-Isobutyl-2-N-(4-methoxybenzenesulfonyl)-6-N-(N′α-pivaloyl-S-tryptophanyl)-2,6-diaminohexanol]", "Ki": 1.9},
      {"smiles": "COc1ccc(S(=O)(=O)N(CC(C)C)[C@H](CO)CCCCNC(=O)[C@H](Cc2c[nH]c3ccccc23)NS(=O)(=O)c2ccc(C)cc2)cc1", "note": "[Example 149, (2S,2′S) 2-N-Isobutyl-2-N-(4-methoxybenzenesulfonyl)-6-N-[N′α-(4-methylbenzenesulfonyl)-S-tryptophanyl]-2,6-diaminohexanol]", "Ki": 7.5},
      {"smiles": "COC(=O)[C@H](CCCCNC(=O)[C@H](Cc1c[nH]c2ccccc12)NC(=O)OC(C)(C)C)N(CC1CCCC1)S(=O)(=O)c1ccc(OC)cc1", "note": "[Example 150, Nα-Cyclopentylmethyl-Nα-(4-methoxybenzenesulfonyl)-Nε-(N′α-tert-butoxycarbonyl-L-tryptophanyl)-L-lysine Methyl Ester]", "Ki": "> 300"},
      {"smiles": "COc1ccc(S(=O)(=O)N(CC2CCCC2)[C@@H](CCCCNC(=O)[C@H](Cc2c[nH]c3ccccc23)NC(=O)OC(C)(C)C)C(=O)O)cc1", "note": "[Example 151, Nα-Cyclopentylnethyl-Nα-(4-methoxybenzenesulfonyl)-Nε-(N′α-tert-butoxycarbonyl-L-tryptophanyl)-L-lysine]", "Ki": 5.3},
      {"smiles": "COc1ccc(S(=O)(=O)N(CC2CCCC2)[C@H](CO)CCCCNC(=O)[C@H](Cc2c[nH]c3ccccc23)NC(=O)OC(C)(C)C)cc1", "note": "[Example 153, (2S,2′S) 2-N-Cyclopentylmethyl-2-N-(4-methoxybenzenesulfonyl)-6-N-(N′α-tert-butoxycarbonyl-S-tryptophanyl)-2,6-diaminohexanol]", "Ki": 24}
    ]},
    {"target": "T1, HIV protease", "test": "Enzymatic Assay for Determining the Inhibition Constant (Ki) of Synthetic Compounds Targeting the HIV Protease (fluorometric FRET assay)", "type": "biochemical", "conditions": "Table 1, compounds of formula I; read-out: Ki (anti-protease activity)", "procedure,_shortened": "as §1", "units": {"Ki": "nM"}, "values": [
      {"smiles": "Cc1ccc(S(=O)(=O)N(CC(C)C)[C@H](CO)CCCCNC(=O)[C@H](Cc2ccncc2)NC(=O)OC(C)(C)C)cc1", "note": "[Example 136, (2S,2′S) 2-N-Isobutyl-2-N-(4-methylbenzenesulfonyl)-6-N-(N′α-tert-butoxycarbonyl-S-4-pyridylalanyl)-2,6-diaminohexanol]", "Ki": 110},
      {"smiles": "Cc1ccc(S(=O)(=O)N(CC(C)C)[C@H](CO)CCCCNC(=O)[C@H](Cc2ccc(CNC(=O)OCC3c4ccccc4-c4ccccc43)cc2)NC(=O)OC(C)(C)C)cc1", "note": "[Example 144, (2S,2′S) 2-N-Isobutyl-2-N-(4-methylbenzenesulfonyl)-6-N-[N′α-tert-butoxycarbonyl-S-4-(9-fluorenemethoxycarbonylaminomethyl)phenylalanyl]-2,6-diaminohexanol]", "Ki": "> 300"},
      {"smiles": "COc1ccc(S(=O)(=O)N(CC(C)C)[C@H](CO)CCCCNC(=O)[C@@H](N)Cc2c[nH]c3ccccc23)cc1", "note": "[Example 146, (2S,2′S) 2-N-Isobutyl-2-N-(4-methoxybenzenesullfonyl)-6-N-(S-tryptophanyl)-2,6-diaminohexanol Trifluoroacetic Acid Salt]", "Ki": 15},
      {"smiles": "COc1ccc(S(=O)(=O)N(CC2CCCC2)[C@H](CO)CCCCNC(=O)[C@@H](N)Cc2c[nH]c3ccccc23)cc1", "note": "[Example 152, (2S,2′S) 2-N-Cyclopentylmethyl-2-N-(4-methoxybenzenesulfonyl)-6-N-(S-tryptophanyl)-2,6-diaminohexanol Trifluoroacetic Acid Salt]", "Ki": 12}
    ]}
  ]
}
